From ChEMBL document CHEMBL4616643, “Cytotoxic and anti-inflammatory effects of lignans and diterpenes from Cupressus macrocarpa” (Bioorg Med Chem Lett, 2020) come the findings set out here.

In one experiment the test system is A549. Description: Antiproliferative activity against human A549 cells assessed as inhibition of cell viability by MTT assay. In kind it is functional, cell-based.
The test system of a further experiment is MDA-MB-231. Description: Antiproliferative activity against human MDA-MB-231 cells assessed as inhibition of cell viability by MTT assay. In kind it is functional, cell-based.
Another experiment has as its system HepG2. Description: Antiproliferative activity against human HepG2 cells assessed as inhibition of cell viability by MTT assay. In kind it is functional, cell-based.
For experiment [1], the system named is Neutrophil. Kind of experiment: Anti-inflammatory activity against human neutrophils assessed as inhibition of fMLF/CB-induced superoxide anion generation at 10 uM preincubated for 5 mins followed by fMLF addition after priming with CB for 3 mins and measured after 10 mins by spectrophotometric analysis relative to control. In kind it is functional.
Experiment [2] deals with Neutrophil. Description: Anti-inflammatory activity against human neutrophils assessed as inhibition in fMLF/CB-induced elastase release at 10 uM preincubated for 5 mins followed by fMLF addition after priming with CB for 3 mins and measured after 10 mins by spectrophotometric analysis relative to control. In kind it is functional.
Experiment [3] has as its system Neutrophil. Description: Anti-inflammatory activity against human neutrophils assessed as inhibition of fMLF/CB-induced superoxide anion generation preincubated for 5 mins followed by fMLF addition after priming with CB for 3 mins and measured after 10 mins by spectrophotometric analysis. The class given is functional, cell-based.
Experiment [4] deals with Neutrophil. Kind of experiment: Anti-inflammatory activity against human neutrophils assessed as inhibition of fMLF/CB-induced elastase release preincubated for 5 mins followed by fMLF addition after priming with CB for 3 mins and measured after 10 mins by spectrophotometric analysis. In kind it is functional, cell-based.
Setting [5] is: Homo sapiens, A549, read-out: IC50.
The mark [6] stands for this setting: Homo sapiens, MDA-MB-231, read-out: IC50.
The mark [7] stands for this setting: Homo sapiens, HepG2, read-out: IC50.

≈ marks a conversion by molar mass, not a printed value.

Regarding `C=C1CC[C@@H]2[C@](C)(CCC[C@]2(C)C(=O)O)[C@H]1CC/C(C)=C/COC(C)=O`, the IC50 with A549 (setting [5]) is 8.9 µg/mL (≈ 24.6 µM); in the experiment with MDA-MB-231 (setting [6]), 14.8 µg/mL (≈ 40.8 µM).
Turning to `C=C(C=O)CC[C@H]1C(=C)CC[C@@H]2[C@]1(C)CCC[C@@]2(C)O`, the IC50 with MDA-MB-231 (setting [6]) turned out to be 14.8 µg/mL (≈ 53.5 µM).
As to `COc1cc([C@@H]2c3cc4c(cc3C[C@H]3COC(=O)[C@@H]32)OCO4)cc(OC)c1OC` [DESOXYPODOPHYLLOTOXIN], the 50% inhibitory concentration (IC50) amounted to 0.004 µg/mL (≈ 0.01 µM) in the experiment on A549 (setting [5]), 14.5 µg/mL (≈ 36.4 µM) in the experiment on HepG2 (setting [7]) and 0.07 µg/mL (≈ 0.176 µM) in the experiment on MDA-MB-231 (setting [6]).
As for `COc1cccc2c1C(=O)c1c(O)c3c(c(O)c1C2=O)C[C@@](O)(C(=O)CO)C[C@@H]3O[C@H]1C[C@H](N)[C@H](O)[C@H](C)O1` [DOXORUBICIN], the IC50 in the experiment with A549 (setting [5]) is 0.057 µg/mL (≈ 0.105 µM); in the experiment on MDA-MB-231 (setting [6]) it was 0.6 µg/mL (≈ 1.1 µM).
As to `C=C(C=O)CC[C@H]1C(=C)CC[C@@H]2[C@]1(C)CCC[C@]2(C)C(=O)O`, in the experiment on MDA-MB-231 (setting [6]), the half-inhibitory concentration (IC50) stood at 14.1 µg/mL (≈ 46.3 µM).
Consider `C=C1CC[C@@H]2[C@](C)(CCC[C@]2(C)C(=O)O)[C@H]1CC/C(C)=C/CO` [ISOCUPRESSIC ACID], for which the 50% inhibitory concentration (IC50) result is “Not Active” in the experiment on A549 (a549), “Not Active” in the experiment on HepG2 (hepg2), “Not Active” in the experiment on MDA-MB-231 (mda-mb-231) and 4.8 µM in the experiment on Neutrophil [3]. Moreover, the inhibition at 10 µM was found to be 78% in the experiment on Neutrophil [1] and 19.9% with Neutrophil [2].
Take `C=C1CC[C@H]2[C@@](C)(CO)CCC[C@]2(C)[C@H]1CC/C(C)=C/CO`: the inhibition at 10 µM in the experiment on Neutrophil [1] was determined as 50.7%; in the experiment on Neutrophil [2] it was 22.3%. In addition, the IC50 in the experiment on Neutrophil [3] worked out at 9.6 µM.
For `COc1cc(C[C@H]2COC(=O)[C@@H]2Cc2ccc(O)c(OC)c2)ccc1O` [MATAIRESINOL], the IC50 was 6.6 µM with Neutrophil [4], 15.1 µg/mL (≈ 42.1 µM) with HepG2 (setting [7]) and 2.7 µM with Neutrophil [3]. Further, the inhibition at 10 µM in the experiment with Neutrophil [1] was 95.2%; in the experiment with Neutrophil [2] it was 61.9%.
Take `COc1cc(C[C@H]2C(=O)OC[C@@H]2Cc2ccc(OC)c(OC)c2)ccc1O` [ARCTIGENIN]: the IC50 in the experiment with A549 (setting [5]) came to 0.8 µg/mL (≈ 2.15 µM); in the experiment with HepG2 (setting [7]), 2.8 µg/mL (≈ 7.52 µM); with MDA-MB-231 (setting [6]), 1.1 µg/mL (≈ 2.95 µM).
In the case of `C=C(CC[C@H]1C(=C)CC[C@H]2[C@@](C)(CO)CCC[C@]12C)C(=O)CO`, the results for the IC50 with A549 (setting [5]) and in the experiment with MDA-MB-231 (setting [6]) were 19.8 µg/mL (≈ 61.8 µM) and 19.9 µg/mL (≈ 62.1 µM), respectively.
In the case of `C=C1CC[C@@H]2[C@](C)(CO)CCC[C@@]2(C)[C@@H]1CCC(C)=O`, the inhibition at 10 µM in the experiment on Neutrophil [1] turned out to be 33.5%; in the experiment on Neutrophil [2], 15.7%.
